Assay results published in patent publication EP0380897B1, “Pharmaceutical agents for female sterilization by way of intrauterine administration, and their therapeutical use” (priority 1989, dated 1990).
Read-outs that look alike come from different tables or passages of the source.

Experiments:
trompes humaines = assay: Clinical follow-up of pregnancies after non-surgical female sterilization with intrauterine quinacrine tablets, alone or with an anti-inflammatory adjuvant; type: in vivo, femmes; conditions: for taux de grossesse: quinacrine alone
Experimental: (§1) Ce symptôme est survenu chez 6 % des sujets dans les deux insertions ou seulement dans une seule. • b) un phénomène de fièvre de 38°C à 39,5°C apparaissant le surlendemain du jour d'insertion et durant de 1 à 4 jours, sans relation avec le mal de tête. Les deux symptômes sont corrélés chez seulement quelques sujets. La fièvre est apparue chez 5 % des cas (parfois lors de la première insertion et parfois lors de la seconde). Les autres complications ont été semblables à celles décrites dans l'article publié précédemment J. Zipper et al. Adv. in Contraception 3(1987)255. A la fin de l'année de suivi, le taux de grossesse a été de 3,0 pour 100 femmes et par an.
(§2) Un autre groupe utilisant la quinacrine seule a été constitué, qui a subi deux insertions intra-utérines avec des comprimés à 180 mg. Les insertions ont été séparées par un cycle menstruel - 190 sujets sont entrés dans cette étude. […] Chez un petit nombre de sujets seulement les deux symptômes ont été présents simultanément. La fièvre est apparue dans 3% des cas (pas nécessairement lors des deux insertions). Ce groupe a manifesté un taux de grossesse de 3 pour 100 femmes, et par an à la fin de la première année du suivi. Les deux groupes quinacrine (250 et 180 mg) ont été considéré comme des témoins pour les autres groupes qui ont reçu un anti-inflammatoire, un antipyrétique et des substances anti-prostagrandines.
(§3) 4 mg de Bétaméthasone et 4 mg de Dexaméthasone ont été employé dans des groupes distincts de sujets. • 1 - 4 mg de Betaméthasone intra-musculaire Ce groupe incluait 90 sujets - 4 mg de Bethaméthasone ont été injectés lorsque le comprimé de quinacrine à 250 mg a été inséré. Ce procédé a été utilisé à nouveau avec le second comprimé (comprimé à 250 mg ayant un temps de dissolution de 100 mn). […] Les sujets ont achevé une année de suivi et ont représenté 1220 mois. […] Ce groupe incluait 65 sujets. […] Ces sujets ont effectué au total 830 mois de suivi. […] Ceci nous a conduit à faire des investigations sur la potentialisation possible des effets occlusifs de la quinacrine chez le rat dû à la betaméthasone. Cette méthode expérimentale est celle décrite pour d'autres substances (ref. Agent pharmacologique qui potentialisent ou inhibent l'action occlusivante de la quinacrine, dans le tube du lapin et dans l'utérus de rat cf J. ZIPPER-S.INSUNSA Female Stérilization - pronostic pour des techniques simplifiées pour le sujet ambulatoire Ed Gordon, W. Duncan, R.D. Falb et J. Joseph SPEIDEL (p 131-137), NEW YORK Acad. Press 1972 compte-rendu). La Betamethasone s'est révélée être active chez le rat, avec des solutions de l'ordre de 005 mg/ml. La base physiologique de cette action n'a pas été déterminée et aucun rapport à ce sujet n'a été publié (cf histologie de l'utérus de rat sous l'influence de 50 mg/ml de quinacrine + 0, 05 mg /ml Betamethasone Figure 1).
Ce groupe inclue 80 sujets. Lorque le comprimé de 250 mg est inséré, 4 mg de Dexamethatone sont injectés par voie intramusculaire. La méthode est réputée avec un second comprimé. […] Les sujets ont achevé 950 mois de suivi.
L'insertion est effectuée après que les comprimé aient été insérés. Ce groupe inclût 60 sujets. […] Ce groupe avait 850 mois de suivi.
La bétaméthasone et la Dexamethasone sont des stéroïdes ayant une activité puissante antiphlogistique, anti-inflammatoire et anti-oedemateuse au niveau cérébral et sont des adjuvants importants pour réduire les effets secondaires indésirables de la quinacrine lorsque cette substance est employée pour provoquer l'occlusion la région intra-murale des trompes humaines afin de réaliser une stérilisation pharmacologique. En outre, un mécanisme d'action qui n'est pas clair, semble renforcer l'action d'occlusion de la quinacrine à ce niveau. Le nombre total de sujets a été de 295 et a représenté 3850 mois/femmes d'observation. Seulement une grossesse a été détectée. […]

utérus de rat = assay: Potentiation of the occlusive effect of quinacrine in the rat uterus; type: in vivo; conditions: solutions of the order of 005 mg/ml (Figure 1: 50 mg/ml quinacrine + 0, 05 mg /ml)
Experimental: as §3, with “La base physiologique de cette action n'a pas été déterminée et aucun rapport à ce sujet n'a été publié (cf histologie de l'utérus de rat sous l'influence de 50 mg/ml de quinacrine + 0, 05 mg /ml Betamethasone Figure 1).” left out

femmes = assay: Clinical follow-up of side effects (fever, headache) after intrauterine insertion of quinacrine tablets, alone or with an anti-inflammatory adjuvant; type: in vivo
Experimental: as §1
as §2, with “anti-prostagrandines. […]” for “anti-prostagrandines.”
• 1 - Diclofenac sel de sodium - Cet important agent anti-inflammatoire et inhibiteur de synthèse de prostaglandine a été appliqué en une dose unique intramusculaire de 75 mg, lorsque le comprimé de quinacrine à 180 mg a été inséré. Deux insertions par sujet ont été effectuées, séparées par un cycle menstruel - 78 sujets ont été traités - 702 mois de suivi. […] Ce procédé a été utilisé à nouveau avec le second comprimé séparé par un cycle menstruel. […] Ce groupe incluait 85 sujets. Les sujets ont achevé 1190 mois de suivi. […] Cet agent antipyrétique anti-inflammatoire a été appliqué en une dose unique intramusculaire de 2 g lorsque le pellet de quinacrine à 180 mg (temps de dissolution 10 minutes) a été inséré. Deux insertions, séparées par un cycle mentruel ont été effectuées - 76 sujets ont été traités, 1064 mois de suivi. […] D'autres agents anti-inflammatoires , antiprostaglandine non stéroidiens comme le Piroxicam, Indomethacine, Ibuprogene, Naproxen ou d'autres peuvent être utilisés. La recherche avec quelques uns de ces agents est en développement. De même, la recherche avec les inhibiteurs de synthèse de prostaglandines appliqués par voie intrautérine ou intramusculaire une seule fois est en développement.

sujets = conditions: cited from earlier work
[1] = 50 mg tablets by the 'intra-urétine' route simultaneously with quinacrine tablets (180 mg, dissolution time 10 min), two insertions, 85 subjects, first seven days
[2] = single 75 mg intramuscular dose at each of two insertions of 180 mg quinacrine tablet, 78 subjects, first week
[3] = share of subjects after the first insertion of quinacrine (250 mg)
[4] = share of subjects after the third insertion of quinacrine (250 mg)

Q: What does the source list for `C[C@H]1C[C@H]2[C@@H]3CCC4=CC(=O)C=C[C@]4(C)[C@@]3(F)[C@@H](O)C[C@]2(C)[C@@]1(O)C(=O)CO` [Betaméthasone]?
A: grossesse (trompes humaines; 4 mg intramuscular at each of two insertions of 250 mg quinacrine tablet, 90 subjects, 1220 months of follow-up, pregnancy in sixth month): Seulement une grossesse normotopique a été détectée; grossesse (trompes humaines; 4 mg intrauterine (solution in 1 ml) simultaneously with quinacrine tablet, 65 subjects, 830 months of follow-up): Aucune grossesse n'a été signalée; potentialisation des effets occlusifs de la quinacrine (utérus de rat): active

Q: With `O=C(O)Cc1ccccc1Nc1c(Cl)cccc1Cl` [Diclofenac sel de sodium] as the molecule, how does the fièvre (femmes; [1]) read?
A: ni fièvre

Q: And the “maux de tête” value (femmes; [1])?
A: ni maux de tête

Q: What about the fièvre (femmes; [2]) of the same molecule?
A: ni fièvre

Q: What about the “mal de tête” value (femmes; [2]) of the same molecule?
A: ni mal de tête

Q: What about the grossesse (trompes humaines; 50 mg tablets by the 'intra-urétine' route simultaneously with quinacrine tablets (180 mg, dissolution time 10 min), 85 subjects, 1190 months of follow-up) of the same molecule?
A: Aucune grossesse n'a été détectée

Q: And the grossesse (trompes humaines; single 75 mg intramuscular dose at each of two insertions of 180 mg quinacrine tablet, 78 subjects, 702 months of follow-up)?
A: aucune grossesse n'a été détectée

Q: Which grossesse (trompes humaines; single 2 g intramuscular dose at each of two insertions of 180 mg quinacrine pellet (dissolution time 10 min), 76 subjects, 1064 months of follow-up) does the source give for `Cc1c(N(C)CS(=O)(=O)O)c(=O)n(-c2ccccc2)n1C` [Dipyrone, metamizol sel de sodium] here?
A: aucune grossesse n'a été détectée

Q: With `CCN(CC)CCCC(C)Nc1c2ccc(Cl)cc2nc2ccc(OC)cc12` (stereo not shown) [quinacrine] as the molecule, how does the taux de grossesse (trompes humaines; two insertions of 250 mg tablets, 209 subjects, 2544 months, end of the year of follow-up) read?
A: 3,0 pour 100 femmes et par an

Q: What about the taux de grossesse (trompes humaines; two intrauterine insertions of 180 mg tablets, 190 subjects, end of first year of follow-up) of the same molecule?
A: 3 pour 100 femmes, et par an

Q: And the fièvre (sujets; [3])?
A: 10%

Q: And the “maux de tête” value (sujets; [3])?
A: 9%

Q: And the fièvre (sujets; [4])?
A: 2%

Q: And the “maux de tête” value (sujets; [4])?
A: 10,2%
